Values after ≈ are worked out from the molar mass of the structure shown.

Results on twelve compounds are retold here after ChEMBL document CHEMBL1125519, “Thieno[2,3-b]furan-2-sulfonamides as topical carbonic anhydrase inhibitors” (J Med Chem, 1992).

Series [1] in a line: physchem. The conditions noted are these: water.
Description: Solubility was evaluated in water at 25 degree Centigrade
The target in series [2] is T1, Carbonic anhydrase 2 (Homo sapiens, UniProt P00918).
Description: Compound was evaluated for the inhibition of dansylamide at human carbonic anhydrase II
Series [3] is described as follows: physchem. The conditions noted are these: 30% ethanol.
Series [4] can be described thus: physchem. The conditions noted are these: water. This is another data set of the same source.
The species named for series [5] is Bos taurus.
The target in series [6] is T1, Carbonic anhydrase 2. The source holds these as a separate data set.
Description: Inhibition of human erythrocyte carbonic anhydrase II
Series [7] in a line: Solubility was evaluated at pH 7.4 buffer at 25 degree Centigrade. Type of series: physicochemical.
For series [8], the species on record is Bos taurus. Put plainly: Percentage binding to bovine iris and ciliary body. Type of series: functional.
The species named for another series is Oryctolagus cuniculus. Put plainly: Compound was evaluated for the lowering of the intraocular pressure (IOP) (2%, 3 drops) in ocular normotensive pigmented rabbits. It counts as functional, Eye.
The species entered for series [9] is Bos taurus. Put plainly: Percentage binding of bovine ocular pigment. Type of series: functional, Eye.
Series [10] can be described thus: pKa in water. Type of series: physicochemical.

Consider `NS(=O)(=O)c1cc2cc(CNCCF)sc2o1`, for which the solubility in “physchem [1]” is greater than 32 mg/mL. This compound also displayed an inhibitory constant (Ki) at Carbonic anhydrase 2 [2] of 3.4 nM. Moreover, the results for the pKa in “physchem [3]” and in “physchem [4]” were 9 and 6.55, respectively. The same compound came in with a Pigment binding in the series filed under Bos taurus [5] of 60%. The IC50 against Carbonic anhydrase 2 [6] is 12 nM.

As to `NS(=O)(=O)c1cc2cc(CNCc3ccccn3)sc2o1`, the solubility was 20.4 mg/mL (≈ 63.1 mM) in the series “physchem [1]” and 16.9 mg/mL (≈ 52.3 mM) in series [7]. Moreover, on Carbonic anhydrase 2 [2], the Ki is 8.2 nM. Moreover, the pKa in the series “physchem [3]” turned out to be 9.08; in “physchem [4]” it was 7.02. The compound further registered a Pigment binding in the series listed under Bos taurus [5] of 69%. Besides, at Carbonic anhydrase 2 [6], 8.2 nM corresponded to half-maximal inhibition (IC50).

`CNCc1cc2cc(S(N)(=O)=O)oc2s1` returned a solubility in “physchem [1]” greater than 51 mg/mL. This compound came in with a Ki at Carbonic anhydrase 2 [2] of 32.3 nM. Besides, the Pigment binding in the series listed under Bos taurus [8] is 77%. Besides, the pKa turned out to be 9.25 in the series “physchem [3]” and 7.85 in “physchem [4]”. The compound further had a half-inhibitory concentration (IC50) on Carbonic anhydrase 2 [6] of 9 nM.

Consider `COCCN(CCOC)Cc1cc2cc(S(N)(=O)=O)oc2s1`, for which, in “physchem [1]”, the solubility was greater than 30 mg/mL. The same compound had a Ki on Carbonic anhydrase 2 [2] of 2.6 nM. In the series listed under Oryctolagus cuniculus, this compound yielded an IOP lowering of 3.9 mmHg. The Pigment binding in the series listed under Bos taurus [8] is 27%. In the series listed under Bos taurus [9], this compound came in with a Binding of 26.9%. Moreover, the pKa stood at 8.95 in the series “physchem [3]” and 5.57 in the series “physchem [4]”. Moreover, the IC50 on Carbonic anhydrase 2 [6] turned out to be 5.1 nM.

`COCCOCCN(CCOC)Cc1cc2cc(S(N)(=O)=O)oc2s1` had a Ki at Carbonic anhydrase 2 [2] of 3.6 nM. The pKa was 8.85 in the series “physchem [3]” and 5.55 in the series “physchem [4]”. This compound came in with a Pigment binding in the series listed under Bos taurus [5] of 21%. On Carbonic anhydrase 2 [6], this compound returned an IC50 of 6.49 nM.

Take `CCOCCNCc1cc2cc(S(N)(=O)=O)oc2s1`: the solubility came to 40.8 mg/mL (≈ 134 mM) in “physchem [1]” and 19.7 mg/mL (≈ 64.7 mM) in [7]. The compound also showed a Pigment binding in the series listed under Bos taurus [8] of 75%. Also, the pKa in [10] is 6.85; in the series “physchem [3]”, 8.9. For the same compound, half-maximal inhibition at Carbonic anhydrase 2 [6] (IC50) required 8 nM.

For the compound `NS(=O)(=O)c1cc2cc(CN3CCOCC3)sc2o1`, the solubility in the series “physchem [1]” was greater than 4.7 mg/mL; in [7], 0.97 mg/mL (≈ 3.21 mM). On Carbonic anhydrase 2 [2], this compound showed a Ki of 1.24 nM. In the series filed under Oryctolagus cuniculus, this compound yielded an IOP lowering of 2.5 mmHg. Besides, the Pigment binding in the series filed under Bos taurus [8] is given as 25%. This compound returned a Binding in the series filed under Bos taurus [9] of 24.8%. Besides, the pKa in [10] was found to be 5.32; in “physchem [3]”, 9.2. Moreover, at Carbonic anhydrase 2 [6], the 50% inhibitory concentration (IC50) was determined as 5.6 nM.

In turn, `CC(C)CNCc1cc2cc(S(N)(=O)=O)oc2s1` came in with a solubility in the series “physchem [1]” of 15.3 mg/mL (≈ 53.1 mM). At Carbonic anhydrase 2 [2], this compound had a Ki of 7.4 nM. This compound showed a Pigment binding in the series filed under Bos taurus [8] of 73%. Also, the pKa in the series “physchem [3]” is 9.1; in the series “physchem [4]”, 7.55. Moreover, it took 6 nM to reach half-maximal inhibition against Carbonic anhydrase 2 [6] (IC50).

Regarding `COCCCNCc1cc2cc(S(N)(=O)=O)oc2s1`, the solubility in the series “physchem [1]” was greater than 34 mg/mL. The pKa in the series “physchem [3]” is 9; in the series “physchem [4]” it was 7.25. The compound further showed a Pigment binding in the series listed under Bos taurus [5] of 78%. The same compound came in with an IC50 against Carbonic anhydrase 2 [6] of 12 nM.

Take `NS(=O)(=O)c1cc2cc(CNCCCCO)sc2o1`: the solubility in the series “physchem [1]” was greater than 47 mg/mL. The pKa in “physchem [3]” turned out to be 9.16; in “physchem [4]”, 7.65. The compound further showed an IC50 on Carbonic anhydrase 2 [6] of 11 nM.

Take `COCCNCc1cc2cc(S(N)(=O)=O)oc2s1`: the solubility (in the series “physchem [1]”; in series [7]) was greater than 27 mg/mL each time. The same compound registered a Pigment binding in the series filed under Bos taurus [8] of 73%. Besides, the figures for the pKa (in series [10]; in “physchem [3]”) were 7 and 9.05, respectively. The compound also displayed an IC50 at Carbonic anhydrase 2 [6] of 11 nM.

`CCCNCc1cc2cc(S(N)(=O)=O)oc2s1`: the solubility in “physchem [1]” is greater than 22.5 mg/mL. The same compound gave a Pigment binding in the series filed under Bos taurus [8] of 68%. The results for the pKa in “physchem [3]” and in the series “physchem [4]” were 9.4 and 7.85, respectively. This compound gave an IC50 on Carbonic anhydrase 2 [6] of 8 nM.
